Consider three compounds from patent publication US8426437B2, “Pyrroloquinoline derivatives and their use as protein kinases inhibitors” (Pierre Fabre Medicament, priority 2005, dated 2013).

One test concerns the target T1, Met (h) (Homo sapiens, UniProt P08581).
T1 construct: purchased Upstate
The test can be described thus: Upstate kinase panel: Met. In kind it is biochemical. To be noted: compound 20 μM, 10 μM ATP, read-out: % inhibition at 20 μMol. Here is the method: (§1) These kinases are produced by Upstate and screened according to the respective protocols indicated by the supplier (http://www.upstate.com/features/kp_protocols.asp). Examples 1, 12, 166 and 238 were tested at a concentration of 20 μM, 10 μM, 1 μM and 1 μM respectively in the presence of 10 μM of ATP for examples 1 and 12 and at the concentrations of ATP shown in parentheses for examples 166 and 238. The results shown in Table VII correspond to percentage inhibition of the kinase tested in the presence of the compound, relative to a control effected without the compound.

A further test has as its target T2, PIM-1 (Homo sapiens, UniProt P11309).
T2 construct: purchased Upstate 14-573
In words: Inhibition of kinase PIM-1 (Kinase-Glo). The class given is biochemical. To be noted: PIM-1 0.625 μg/ml, 10 μM ATP, forty minutes at 30° C. The method in brief:
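PIM-1 (0.625 μg/ml) in MOPS/NaOH pH 7 with Mg acetate was run with 70 μM S6 kinase/Rsk2 peptide and 10 μM ATP, with compound at 10 nM–30 μM final.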
For orientation: Kinase-Glo reads ATP consumption through a luciferase reaction.

Another test deals with T3, Hck (h) (Homo sapiens, UniProt P08631).
T3 construct: purchased Upstate
The test can be described thus: Upstate kinase panel: Hck. In kind it is biochemical. Particulars: compound 10 μM, 10 μM ATP, read-out: % inhibition at 10 μMol. Here is the method:
as §1

The next test has as its system A498. In words: WST test, inhibition of proliferation of A498. The class given is cell-based. To be noted: Homo sapiens, 96 h; line A498, tissue of origin Kidney; four days of incubation, WST-1. Here is the method:
(§2) The inhibition of the proliferation of cell lines by certain compounds of the invention was tested. […] In the example, the lines used were derived from cancers of the uterus, central nervous system, colon, stomach, head and neck, lung, breast, pancreas, and kidney, as well as from lymphoma, myeloma, pleura, or from melanoma.
(§3) The WST test for measuring cell proliferation and viability (Roche Applied Science) is based on cleavage of a tetrazolium salt by the mitochondrial dehydrogenases in viable cells.
(§4) After four days of incubation of the compounds with the cell line, 14 μl of WST-1 reagent is added to each well and the plates are incubated for four hours at 37° in humid atmosphere at 5% CO2. The level of formazan formed is then determined by spectrophotometry at 450 nm whereas a reference is measured at 650 nm. A control with untreated cells is represented by six wells per plate and the group of treated cells is produced in triplicate for each of the concentrations measured.
(§5) The compounds are tested at five concentrations between 10 nM and 100 μM and two cytotoxic agents are used as controls: adriamycin and 5-fluorouracil.
(Tetrazolium assays rely on reduction of a dye to a coloured formazan, in cell work by metabolically active cells.)

In a further test the test system is 1752L. In words: WST test, inhibition of proliferation of 1752L. The class given is cell-based. To be noted: 96 h; line 1752L, tissue of origin Pleuromesothelium; four days of incubation, WST-1. Here is the method:
as §2, §3, §4, §5

Another test deals with A427. In words: WST test, inhibition of proliferation of A427. In kind it is cell-based. Particulars: Homo sapiens, A-427, 96 h; line A427, tissue of origin Lung (NSCLC); four days of incubation, WST-1. Here is the method: as §2, §3, §4, §5
The test system of the next test is HT144. The test can be described thus: WST test, inhibition of proliferation of HT144. The class given is cell-based. To be noted: Homo sapiens, HT-144, 96 h; line HT144, tissue of origin Melanoma; four days of incubation, WST-1. Here is the method: as §2, §3, §4, §5
The next test concerns panel of cell lines. The test can be described thus: Inhibition of the proliferation of a panel of cell lines (WST test). In kind it is cell-based. Particulars: lines of Table XI, four days of incubation.
For the next test, the system named is SW756. In words: WST test, inhibition of proliferation of SW756. The class given is cell-based. Particulars: Homo sapiens, 96 h; line SW756, tissue of origin Cervix; four days of incubation, WST-1. Here is the method:
as §2, §3, §4, §5

In the next test the test system is RAJI. The test can be described thus: WST test, inhibition of proliferation of RAJI. In kind it is cell-based. Particulars: Homo sapiens, 96 h; line RAJI, tissue of origin Lymphoma; four days of incubation, WST-1. Here is the method:
as §2, §3, §4, §5

In a further test the test system is H69. In words: WST test, inhibition of proliferation of H69. The class given is cell-based. Particulars: Homo sapiens, NCI-H69, 96 h; line H69, tissue of origin Lung (SCLC); four days of incubation, WST-1. Here is the method:
as §2, §3, §4, §5

Another test deals with MDA-468. In words: WST test, inhibition of proliferation of MDA-468. To be noted: 96 h; line MDA-468, tissue of origin Breast; four days of incubation, WST-1. In kind it is cell-based. Here is the method: as §2, §3, §4, §5
For another test, the system named is CAPAN2. In words: WST test, inhibition of proliferation of CAPAN2. The class given is cell-based. Particulars: Homo sapiens, Capan-2, 96 h; line CAPAN2, tissue of origin Pancreas; four days of incubation, WST-1. Here is the method:
as §2, §3, §4, §5

The test system of another test is MDA-231. The test can be described thus: WST test, inhibition of proliferation of MDA-231. The class given is cell-based. To be noted: Homo sapiens, MDA-MB-231, 96 h; line MDA-231, tissue of origin Breast; four days of incubation, WST-1. Here is the method:
as §2, §3, §4, §5

T1 sequence (P08581 25-1390): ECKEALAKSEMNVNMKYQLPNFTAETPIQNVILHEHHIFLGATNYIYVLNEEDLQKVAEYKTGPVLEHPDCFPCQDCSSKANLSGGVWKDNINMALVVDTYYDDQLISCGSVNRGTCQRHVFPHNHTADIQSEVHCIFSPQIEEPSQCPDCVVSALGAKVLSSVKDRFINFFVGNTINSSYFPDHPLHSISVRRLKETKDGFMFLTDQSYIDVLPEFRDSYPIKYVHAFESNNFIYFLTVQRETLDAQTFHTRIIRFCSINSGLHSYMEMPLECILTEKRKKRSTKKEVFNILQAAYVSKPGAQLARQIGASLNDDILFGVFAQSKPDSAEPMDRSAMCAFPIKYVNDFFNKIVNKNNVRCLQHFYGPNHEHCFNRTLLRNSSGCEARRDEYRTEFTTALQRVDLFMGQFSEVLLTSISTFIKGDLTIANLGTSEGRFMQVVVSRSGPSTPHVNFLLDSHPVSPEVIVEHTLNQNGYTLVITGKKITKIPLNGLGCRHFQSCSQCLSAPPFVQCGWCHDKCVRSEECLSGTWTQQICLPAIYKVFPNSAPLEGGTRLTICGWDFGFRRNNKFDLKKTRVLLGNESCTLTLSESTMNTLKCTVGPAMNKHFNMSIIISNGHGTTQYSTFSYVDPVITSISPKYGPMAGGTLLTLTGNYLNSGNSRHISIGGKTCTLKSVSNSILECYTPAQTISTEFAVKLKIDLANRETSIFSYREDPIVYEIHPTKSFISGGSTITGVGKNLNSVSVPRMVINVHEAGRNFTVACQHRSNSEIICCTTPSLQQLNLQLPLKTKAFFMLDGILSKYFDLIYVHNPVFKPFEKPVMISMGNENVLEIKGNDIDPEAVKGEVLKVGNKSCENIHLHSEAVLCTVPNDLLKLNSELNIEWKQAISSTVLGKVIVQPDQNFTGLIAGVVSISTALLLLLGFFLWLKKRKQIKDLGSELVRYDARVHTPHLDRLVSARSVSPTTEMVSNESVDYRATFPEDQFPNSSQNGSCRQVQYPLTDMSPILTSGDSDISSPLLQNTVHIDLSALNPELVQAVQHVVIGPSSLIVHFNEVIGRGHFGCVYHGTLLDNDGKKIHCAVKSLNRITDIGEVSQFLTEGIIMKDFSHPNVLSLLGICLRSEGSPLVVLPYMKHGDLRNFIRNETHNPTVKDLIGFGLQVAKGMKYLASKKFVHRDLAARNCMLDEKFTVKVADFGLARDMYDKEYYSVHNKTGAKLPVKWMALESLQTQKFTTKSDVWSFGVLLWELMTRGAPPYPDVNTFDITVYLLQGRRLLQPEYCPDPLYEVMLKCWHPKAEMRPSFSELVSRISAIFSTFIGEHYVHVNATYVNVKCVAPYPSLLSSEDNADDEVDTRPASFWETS
T2 sequence (P11309 whole entry): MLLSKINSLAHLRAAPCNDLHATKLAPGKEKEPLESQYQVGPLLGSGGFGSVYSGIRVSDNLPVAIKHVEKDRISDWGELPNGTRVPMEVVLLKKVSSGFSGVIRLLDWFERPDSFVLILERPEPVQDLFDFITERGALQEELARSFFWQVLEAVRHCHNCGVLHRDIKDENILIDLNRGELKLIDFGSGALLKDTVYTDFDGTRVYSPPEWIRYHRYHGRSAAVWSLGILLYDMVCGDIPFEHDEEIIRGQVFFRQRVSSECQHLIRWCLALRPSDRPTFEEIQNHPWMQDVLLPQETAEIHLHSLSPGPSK
T3 sequence (P08631 whole entry): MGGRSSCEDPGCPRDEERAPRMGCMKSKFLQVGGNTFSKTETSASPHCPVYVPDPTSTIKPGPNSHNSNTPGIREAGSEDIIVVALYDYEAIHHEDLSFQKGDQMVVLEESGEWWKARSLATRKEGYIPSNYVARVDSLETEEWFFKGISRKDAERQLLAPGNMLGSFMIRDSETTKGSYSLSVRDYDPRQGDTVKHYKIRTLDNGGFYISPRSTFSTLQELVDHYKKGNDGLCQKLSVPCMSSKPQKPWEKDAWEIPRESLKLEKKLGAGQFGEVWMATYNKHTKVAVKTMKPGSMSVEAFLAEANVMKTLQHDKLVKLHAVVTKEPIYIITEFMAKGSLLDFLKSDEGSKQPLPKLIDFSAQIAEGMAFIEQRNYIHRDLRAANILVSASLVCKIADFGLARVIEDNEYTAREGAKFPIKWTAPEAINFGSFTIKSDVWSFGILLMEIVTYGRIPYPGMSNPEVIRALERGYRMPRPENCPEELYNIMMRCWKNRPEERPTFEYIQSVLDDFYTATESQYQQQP

Consider `CCOC(=O)c1c[nH]c2c(=O)[nH]c3ccccc3c12` [Compound 1, 4-Oxo-4,5-dihydro-3H-pyrrolo[2,3-c]quinoline-1-ethyl carboxylate], for which the inhibition at 20 µM on Met (h) was 52%. Moreover, the IC50 on PIM-1 is 10 to 100 µM.

Consider `CCOC(=O)c1c[nH]c2c(=O)[nH]c3ccc(S(=O)(=O)Nc4ccc(F)cc4)cc3c12` [Compound 12, 8-(4-Fluorophenylsulfamoyl)-4-oxo-4,5-dihydro-3H-pyrrolo[2,3-c]quinoline-1-ethyl carboxylate], for which the inhibition at 10 µM at Hck (h) amounted to 91%.

As to `CCOC(=O)c1c[nH]c2c(=O)[nH]c3ccc(-c4cccc(S(C)(=O)=O)c4)cc3c12` [Compound 238, 8-(3-Methanesulfonyl-phenyl)-4-oxo-4,5-dihydro-3H-pyrrolo[2,3-c]quinoline-1-ethyl carboxylate], the IC50 in the test with A498 is 49 µM; with 1752L, 35 µM; in the test on A427 it was 36 µM; in the test on HT144, 31 µM; with SW756, 35 µM; in the test on RAJI it was 34 µM. The IC50 with H69 worked out at 0.5 µM; in the test on MDA-468, 38 µM; in the test on CAPAN2, 47 µM; with MDA-231, 41 µM. In the test with panel of cell lines, the “inhibition of proliferation of cell lines (in words)” value is recorded as “inhibition of proliferation”.

A word on the inhibition: it is the drop in the measured response relative to a control, in per cent. In general, IC50 refers to the concentration at which inhibition is half-maximal.
